Laboratory results taken from patent US20180244653A1, “SELECTIVE ALPHA-7 NICOTINIC RECEPTOR AGONISTS AND METHODS FOR MAKING AND USING THEM” (THE REGENTS OF THE UNIVERSITY OF CALIFORNIA, priority 2015, published 2018).
Where “and” joins values, the source holds several entries; their conditions need not be identical. Equal values may be shown once. Entries after “also recorded” stand apart in the source; their conditions may differ. Read-outs that look alike come from different tables or passages of the source.

Tests used:
α7-nAChRs = target: T1, α7-nAChRs (Homo sapiens, UniProt P36544); experiment: FRET functional assay (agonist/antagonist) using LGIC-CNiFERs; type: cell-based; details: for EC50: in presence of 10 μM PNU-120596, * partial agonist, read-out: Agonist EC50 ± SD, α7
T1 construct: expressed in transfected cells; host or cells: HEKtsA201 cells co-expressing TN-XXL
Description: (§1) Initially, the agonist properties of tested compounds were assessed directly. […] All α7-nAChR functional assays were performed in the presence of PNU-120596, an α7-nAChR positive allosteric modulator (PAM), to increase signal and delay the sensitization state of α7-nAChRs enabling the measurement of more prolonged FRET signals.^29 Compounds having agonist responses of >0.20 were determined for EC50, and compounds having inhibition fraction of >0.50 were determined for KA.^25 EC50>13.3 μM and KA>10 μM which are a screening concentration for agonist and antagonist, respectively were reported compounds not taken for further in the screening of receptor occupation and responses.
(§2) Agonist and antagonist elicited responses were characterized using the above CNiFER cell expressing Cys-loop ligand-gated ion channel (LGIC) receptors. […] A 96-well black, clear-bottom microplate (Greiner bio-one, Germany) was coated with poly-D-lysine (Sigma-Aldrich, St. Louis, Mo.) 50 μL/well for 30 min and washed out with Phosphate-Buffered Saline (PBS) (Corning, Cellgro, Manassas, Va.) before plating the cells. After plating and incubation at 37° C. for 1 day, the media was replaced with 100 μL of artificial cerebrospinal fluid (aCSF: 121 mM NaCl, 5 mM KCl, 26 mM NaHCO3, 1.2 mM NaH2PO4H2O, 10 mM glucose, 2.4 mM CaCl2, 1.3 mM MgSO4, 5 mM HEPES, pH 7.4) for 4032 and 5HT3A receptors, whereas 10 μM PNU-120596 (Tocris Bioscience, Bristol, UK) in aCSF with 30 min incubation at 37° C. was used for α7-nAChR. The tested compounds were prepared in aCSF for all receptors except α7-nAChR, where 10 μM PNU-120596, a positive allosteric modulator (PAM) was used. The prepared compounds were added in a separate 96-well polypropylene plate (Costar, Corning, N.Y.). Experiments were conducted at 37° C. using 436-nm excitation. Emitted light was collected at 485 nm and 528 nm. Basal fluorescence was recorded for 30 s, followed by addition of 50 μL of ligand (first addition). Measurements were made at 3.84 s intervals for 2 min to measure the agonistic effect. […] Agonist and antagonist properties were sequentially screened at the final concentration of 13.3 and 10 μM, respectively, which differed from the screening concentration from intact cell binding assay (10 μM).

5HT3A receptors [1] = target: T2, 5HT3A receptors (Mus musculus, UniProt P23979); experiment: as above; type: cell-based; details: for Kd / Antagonist KA ± SD, 5HT3A: competitive antagonist (^C), vs 5-HT; for Kd: read-out: Antagonist KA ± SD, 5HT3A; for Functional properties at 5HT3A receptors (agonist / antagonist, type): functional screening and characterization; for EC50: read-out: Agonist EC50 ± SD, 5HT3A
T2 construct: expressed in transfected cells; host or cells: HEK293 cells co-expressing TN-XXL
T2 sequence (P23979 24-489): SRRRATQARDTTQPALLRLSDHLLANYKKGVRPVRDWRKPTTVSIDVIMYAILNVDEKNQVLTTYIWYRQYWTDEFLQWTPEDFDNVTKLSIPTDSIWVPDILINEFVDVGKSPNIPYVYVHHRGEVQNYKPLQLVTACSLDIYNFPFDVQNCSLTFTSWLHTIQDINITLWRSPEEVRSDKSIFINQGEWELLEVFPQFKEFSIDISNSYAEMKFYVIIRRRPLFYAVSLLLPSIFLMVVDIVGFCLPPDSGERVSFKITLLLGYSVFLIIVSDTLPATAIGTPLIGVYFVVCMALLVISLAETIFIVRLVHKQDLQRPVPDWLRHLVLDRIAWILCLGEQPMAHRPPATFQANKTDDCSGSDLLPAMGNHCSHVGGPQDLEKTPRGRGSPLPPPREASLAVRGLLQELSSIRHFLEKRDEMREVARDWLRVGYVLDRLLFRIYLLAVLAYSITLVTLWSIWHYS
Description: as §1, §2

α4β2-nAChRs [2] = target: T3, α4β2-nAChRs (Homo sapiens, UniProt P17787+P43681); experiment: as above; type: cell-based; details: for Functional properties at α4β2-nAChRs (agonist / antagonist, type): functional screening and characterization
T3 construct: expressed in transfected cells; host or cells: HEKtsA201 cells co-expressing TN-XXL
Description: as §1, §2

5HT3A receptors [3] = target: T2, 5HT3A receptors; experiment: Intact cell competitive radioligand binding assay ([3H]-granisetron, SPA), LGIC-CNiFERs; details: >10 = did not pass initial screen at 10 μM
[4] = target: α7/5HT3A chimera receptor (hα7/m5HT3A), used for α7-nAChRs (UniProt P23979+P36544, M226I/T225I); experiment: Intact cell competitive radioligand binding assay ([3H]-(±)-epibatidine, SPA), LGIC-CNiFERs; details: for Kd: read-out: Kd ± SD, α7-nAChRs, >10 = did not pass initial screen at 10 μM
α4β2-nAChRs [5] = target: T3, α4β2-nAChRs; experiment: as above; details: 10 μM, more than 50% radioligand displacement
[6] = >10 = did not pass initial screen
[7] = read-out: Antagonist KA ± SD, α4β2
[8] = read-out: Antagonist KA ± SD, α4β2, non-competitive
[9] = non-competitive antagonist (^NC)
[10] = competitive antagonist (^C), >10 = did not pass initial screen, vs (±)-epibatidine
[11] = competitive antagonist (^C), >10 = did not pass initial screen, vs (±)-epibatidine, read-out: Antagonist KA ± SD, α4β2
[12] = Antagonist KA ± SD, α4β2, competitive antagonist (^C), >10 = did not pass initial screen, vs (±)-epibatidine

Row | SMILES | EC50 (α7-nAChRs; [6]) | Kd (5HT3A receptors [1]; [6]) | Functional properties at 5HT3A receptors (agonist / antagonist, type) (5HT3A receptors [1]) | EC50 (5HT3A receptors [1]) | Kd [4] | other results
1 | c1cc2cc(-c3cn(CCN4CCCCC4)nn3)ccc2[nH]1 [IND1, 5-(1-(2-(Piperidin-1-yl)ethyl)-1H-1,2,3-triazol-4-yl)-1H-indole] | 0.17 µM | > 10 µM | agonist and antagonist responses were not observed | > 10 µM | – | Fold increase in α7-nAChR agonist potency over lead compound TTIn-1 (α7-nAChRs): 3.5 fold; Kd (α4β2-nAChRs [2]; [7]): > 10 µM; Kd (5HT3A receptors [3]; read-out: Kd ± SD, 5HT3A): 5.52 µM
2 | c1cc2cc(-c3cn(CCCN4CCCCC4)nn3)ccc2[nH]1 [IND2, 5-(1-(3-(Piperidin-1-yl)propyl)-1H-1,2,3-triazol-4-yl)-1H-indole] | 2.2 µM | – | agonist and antagonist responses were not observed | – | 7.2 µM | –
3 | CN1[C@@H]2CCC[C@H]1CC(n1cc(-c3ccc4[nH]ccc4c3)nn1)C2 (stereo partly drawn) [IND7, 5-(1-((1R,5S)-9-Methyl-9-azabicyclo[3.3.1]nonan-3-yl)-1H-1,2,3-triazol-4-yl)-1H-indole] | – | – | agonist and antagonist responses were not observed | – | 4.52 µM | Functional properties at α4β2-nAChRs (agonist / antagonist, type) (α4β2-nAChRs [2]): weak antagonistic properties; Kd (α4β2-nAChRs [2]; [8]): 22.2 µM
4 | CN1CCCC(n2cc(-c3ccc4[nH]ccc4c3)nn2)C1 (stereo not drawn) [IND11, 5-(1-(1-Methylpiperidin-3-yl)-1H-1,2,3-triazol-4-yl)-1H-indole] | 3.3 µM | – | – | – | 5.07 µM | –
5 | CN(C)CCn1cc(-c2ccc3[nH]ccc3c2)nn1 [IND12, 5-(1-(2-(N,N-Dimethylamino)ethyl)-1H-1,2,3-triazol-4-yl)-1H-indole] | 5.74 µM | – | mix-competitive antagonist | – | 7.68 µM | –
6 | c1cc2cc(-c3cn(CCN4CCCC4)nn3)ccc2[nH]1 [IND13, 5-(1-(2-(Pyrrolidin-1-yl)ethyl)-1H-1,2,3-triazol-4-yl)-1H-indole] | 2.17 µM | – | – | – | 4.84 µM | –
7 | O=Cc1c[nH]c2ccc(-c3cn(CCN4CCCCC4)nn3)cc12 [PPRD5, 5-((1-(2-Piperidin-1-yl)ethyl)-1,2,3-triazol-4-yl)-indole-3-carbaldehyde] | 1.05 ± 0.17 µM | > 10 µM | – | > 10 µM | 3.27 µM | Kd (α4β2-nAChRs [2]; [7]): > 10 µM
8 | Cn1ccc2cc(-c3cn(CCN4CCCCC4)nn3)ccc21 [PPRD9, 1-(2-((1-Methyl-5-indolyl)-1,2,3-triazol-1-yl)ethyl)piperidine] | 12.9 µM | – | mixed (competitive,non-competive) antagonist | – | 12.1 µM | Antagonist KA ± SD, 5HT3A (5HT3A receptors [1]; [6]): 15.1 ± 4.0^C, μM; Antagonist KA ± SD, 5HT3A, non-competitive (5HT3A receptors [1]; [9]): 56.0 ± 31.0^NC μM; Antagonist KA ± SD, α4β2 (α4β2-nAChRs [2]; [10]): 10.5 ± 3.1^C,^ μM; Functional properties at α4β2-nAChRs (agonist / antagonist, type) (α4β2-nAChRs [2]): α4β2-nAChR antagonists; also recorded: mix-competitive antagonist; Antagonist KA ± SD, α4β2, non-competitive (α4β2-nAChRs [2]; [9]): 25.5 ± 12.8^NC μM
9 | c1ccc2c(-c3cn(CCN4CCCCC4)nn3)c[nH]c2c1 [PPRD12] | – | – | competitive antagonist | – | – | Antagonist KA ± SD, α7 (α7-nAChRs; [10]): 4.5 ± 1.5^C, μM; Functional properties at α7-nAChRs (agonist / antagonist) (α7-nAChRs; functional screening and characterization): weak and non-selective α7-nAChR antagonists; Antagonist KA ± SD, α7, non-competitive (α7-nAChRs; [9]): 11.3 ± 4.5^NC μM; Antagonist KA ± SD, 5HT3A (5HT3A receptors [1]; [6]): 2.1 ± 0.3^C μM; Kd (α4β2-nAChRs [2]; [11]): >10 µM; Kd (5HT3A receptors [3]; read-out: Kd ± SD, 5HT3A): 2.55 µM and 2.6 µM
10 | COC(=O)c1cc(-c2cn(CCN3CCCCC3)nn2)ccc1O [PPRD14, Methyl 2-hydroxy-5-(1-(2-(piperidin-1-yl)ethyl)-1,2,3-triazol-4-yl)benzoate] | > 10 µM | 1.44 µM and 1.4 µM | competitive antagonist | – | > 10 µM | Kd (α7-nAChRs; competitive antagonist (^C), >10 = did not pass initial screen, vs (±)-epibatidine, read-out: Antagonist KA ± SD, α7): > 10 µM; Kd (α4β2-nAChRs [2]; [7]): > 10 µM
11 | COC(=O)c1cc(-c2cn(CCN3CCCCC3)nn2)ccc1N [PPRD15, Methyl 2-amino-5-(1-(2-(piperidin-1-yl)ethyl)-1,2,3-triazol-4-yl)benzoate] | 3.1 µM | 6 µM | competitive antagonist | – | 4.4 µM | Kd (α4β2-nAChRs [2]; [7]): > 10 µM
12 | c1cc2c(cc1-c1cn(C3CN4CCC3CC4)nn1)OCO2 (stereo not drawn) [QND1, 3-(4-(Benzo-1,3-dioxol-5-yl)-1,2,3-triazol-1-yl)quinuclidine] | 0.12 ± 0.04 µM | – | – | 0.3 ± 0.04 µM | 0.16 µM | Kd (α4β2-nAChRs [2]; [12]): > 10 µM; Kd (5HT3A receptors [3]; Kd ± SD, 5HT3A): 0.02 to 0.05 µM
13 | Nc1ccc(-c2cn(C3CN4CCC3CC4)nn2)cc1 (stereo not drawn) [QND2, 3-(4-Aminophenyl-1,2,3-triazol-1-yl)quinuclidine] | 0.05 µM | – | 5HT3A receptor agonist properties | – | – | Fold increase in α7-nAChR agonist potency over lead compound TTIn-1 (α7-nAChRs): 20 fold; EC50 (5HT3A receptors [1]; * partial agonist, >10 = did not pass initial screen): 1.63 ± 0.29 µM; Kd (α4β2-nAChRs [2]; [11]): >10 µM; Kd (5HT3A receptors [3]; read-out: Kd ± SD, 5HT3A): 1.21 µM
14 | COc1ccc2cc(-c3cn(C4CN5CCC4CC5)nn3)ccc2c1 (stereo not drawn) [QND6, 3-(4-(6-Methoxynaphthalen-2-yl)-1,2,3-triazol-1-yl)quinuclidine] | 22 ± 6 µM | > 10 µM | – | > 10 µM | – | Initial screening for binding to α4β2-nAChRs (α4β2-nAChRs [5]): associate well with α4β2-nAChRs; Kd (α4β2-nAChRs [2]; [12]): 7 ± 4.5 µM; Functional properties at α4β2-nAChRs (agonist / antagonist, type) (α4β2-nAChRs [2]): mix-competitive antagonist; Kd (α4β2-nAChRs [2]; [8]): 6.2 ± 0.4 µM
15 | c1ccc2c(-c3cn(C4CN5CCC4CC5)nn3)c[nH]c2c1 (stereo not drawn) [QND12, 3-(4-(Indol-3-yl)-1,2,3-triazol-1-yl)quinuclidine] | 0.45 ± 0.14 µM | – | – | 0.34 ± 0.13 µM | 0.92 µM | Fold increase of Kd (α7-nAChRs) compared to IND8 [4]: 9 fold; Kd (α4β2-nAChRs [2]; [12]): > 10 µM; Kd (5HT3A receptors [3]; Kd ± SD, 5HT3A): 0.02 to 0.05 µM and 0.02 µM
16 | COC(=O)c1cc(-c2cn(C3CN4CCC3CC4)nn2)ccc1N (stereo not drawn) [QND15, Methyl 2-amino-5-(1-(quinuclidin-3-yl)-1H-1,2,3-triazol-4-yl)benzoate] | 1.34 µM | – | 5HT3A receptor agonist properties | 0.26 ± 0.03 µM | 3.61 µM | Fold lower affinity for α7-nAChRs than QND2 [4]: 10 fold; Kd (α4β2-nAChRs [2]; [12]): 11.6 ± 1 µM; Functional properties at α4β2-nAChRs (agonist / antagonist, type) (α4β2-nAChRs [2]): competitive antagonism; Kd (5HT3A receptors [3]; Kd ± SD, 5HT3A): 0.04 µM
